In PMC3345088 (Journal of Immunology (Baltimore, Md. : 1950), 2012):

System: purified HLA class II DR, DP and DQ molecules
Experiment: MHC-peptide binding assays
Design: species or system human
Conditions: allele as in inferred restricting HLA allele column

| Substance | Binding to the allelic variant shared by all responders |
| --- | --- |
| CFP10 52–66: 15-mer peptide epitope, residues 52–66 of CFP10 (Rv3874) | high affinity |
| ESAT-6 73–87: 15-mer peptide epitope, residues 73–87 of ESAT-6 (Rv3875) (ARTISEAGQAMASTE; UniProt P9WNK7 73-87, looked up, fragment) | high affinity |
